Tests used:
MNK1a = MNK1a (Homo sapiens, UniProt Q9BUB5); experiment: MNK1 in vitro kinase assay (assay 2), Z'-LYTE; assay type: biochemical; details: for inhibition at 1 µM: compound concentration of 1 μM; for IC50: pre-activated GST-MNK1a
Procedure, shortened: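 Pre-activated GST-MNK1a (13.5-54 ng) with 2 μM Ser/Thr 07 FRET peptide in 50 mM HEPES pH 7.5, 10 mM MgCl2, 2 mM MnCl2, 1 mM EGTA, 1 mM DTT, 1% DMSO; 1 h kinase then 1 h development at room temperature. Coumarin/fluorescein emission ratio gives % phosphorylation; sigmoidal dose-response fit.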

MNK2a = biological target: T1, MNK2a (Homo sapiens, UniProt Q9HBH9); experiment: MNK2a in vitro kinase assay (assay 1), ADP-Glo; assay type: biochemical; details: preactivated GST-MNK2a, 20 μM ATP, read-out: MNK2 IC50
T1 construct: made in house
Procedure, shortened: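 Preactivated GST-MNK2a (10 nM) with eIF4E peptide (25 μM) and ATP (20 μM) in HEPES/DTT/MgCl2 buffer, 90 min at room temperature, final DMSO <3%. ADP formed read by ADP-Glo luminescence and normalised to vehicle and 20 μM reference-inhibitor controls; IC50 from dose-response curves.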

MNK1a, sequence (Q9BUB5 1-424 isoform Q9BUB5-2): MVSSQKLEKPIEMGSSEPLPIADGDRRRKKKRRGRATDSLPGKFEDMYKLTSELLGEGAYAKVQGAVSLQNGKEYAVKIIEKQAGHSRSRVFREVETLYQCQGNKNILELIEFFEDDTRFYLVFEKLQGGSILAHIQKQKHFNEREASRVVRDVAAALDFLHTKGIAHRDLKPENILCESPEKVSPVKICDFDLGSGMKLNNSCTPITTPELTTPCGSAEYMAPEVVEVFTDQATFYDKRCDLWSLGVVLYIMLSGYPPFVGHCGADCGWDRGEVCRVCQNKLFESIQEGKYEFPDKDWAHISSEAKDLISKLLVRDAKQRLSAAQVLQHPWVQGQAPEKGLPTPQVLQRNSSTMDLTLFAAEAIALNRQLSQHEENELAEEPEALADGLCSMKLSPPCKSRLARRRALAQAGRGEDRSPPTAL
T1 sequence (Q9HBH9 whole entry): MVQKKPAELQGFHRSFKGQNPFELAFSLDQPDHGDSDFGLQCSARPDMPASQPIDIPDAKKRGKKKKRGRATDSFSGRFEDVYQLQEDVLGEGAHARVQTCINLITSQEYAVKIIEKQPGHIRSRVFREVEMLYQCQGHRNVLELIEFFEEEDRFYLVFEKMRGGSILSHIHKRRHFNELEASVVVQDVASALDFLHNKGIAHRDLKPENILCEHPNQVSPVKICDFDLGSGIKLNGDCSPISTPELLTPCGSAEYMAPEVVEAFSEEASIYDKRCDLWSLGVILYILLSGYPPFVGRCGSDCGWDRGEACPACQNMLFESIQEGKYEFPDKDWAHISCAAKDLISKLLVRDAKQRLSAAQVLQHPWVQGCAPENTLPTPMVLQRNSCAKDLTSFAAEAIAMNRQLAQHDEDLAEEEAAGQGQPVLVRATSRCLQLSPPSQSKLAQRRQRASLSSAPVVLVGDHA

Compound	inhibition at 1 µM (MNK1a)	IC50 (MNK2a)	IC50 (MNK1a)
Cc1cc(N=S2(=O)CCCC2)cc2ncnc(Nc3ccc(F)cc3O[C@@H]3CO[C@@H]4CCC[C@@H]43)c12 [Example 2.123]	100%	1 nM	–
Cc1cc(N=S(C)(C)=O)cc2ncnc(Nc3ccc(F)cc3O[C@@H]3CC[C@@H]4OCC[C@@H]43)c12 [Example 2.124]	83%	4 nM	–
Cc1cc(N=S2(=O)CCCC2)cc2ncnc(Nc3ccc(F)cc3O[C@@H]3CC[C@@H]4OCC[C@@H]43)c12 [Example 2.125]	94%	2 nM	–
Cc1cc(N=S(C)(C)=O)cc2ncnc(Nc3ccc(F)cc3OC3COC3)c12 [Example 2.126]	93%	10 nM	–
CS(C)(=O)=Nc1cc(F)c2c(Nc3cccnc3O[C@@H]3CCCNC3)ncnc2c1 [Example 3.1]	50%	111 nM	–
Cc1cc(N=S(C)(C)=O)cc2ncnc(Nc3cccnc3O[C@H]3CC[C@H](N)CC3)c12 [Example 3.2]	101%	4 nM	–
Cc1cc(N=S2(=O)CCNCC2)cc2ncnc(Nc3ccc(F)cc3O[C@@H]3CO[C@H]4[C@@H]3OC[C@H]4O)c12 [Example 3.3]	95%	5 nM	–
CS(C)(=O)=Nc1cc(F)c2c(Nc3cccnc3O[C@H]3CC[C@H](N)CC3)ncnc2c1 [Example 3.5]	101%	5 nM	–
Cc1cc(N=S(C)(C)=O)cc2ncnc(Nc3cccnc3O[C@@H]3CCCNC3)c12 [Example 3.6]	80%	69 nM	–
CS(C)(=O)=Nc1cc(F)c2c(Nc3ccc(F)cc3O[C@@H]3CCNC3)ncnc2c1 [Example 3.7]	81%	36 nM	–
CS(C)(=O)=Nc1cc(F)c2c(Nc3ccc(F)cc3O[C@@H]3CCCNC3)ncnc2c1 [Example 3.8]	79%	22 nM	–
Cc1cc(N=S(C)(C)=O)cc2ncnc(Nc3ccc(F)cc3O[C@@H]3CCCNC3)c12 [Example 3.9]	89%	10 nM	–
CO[C@H]1CC[C@H](Oc2cc(F)ccc2Nc2ncnc3cc(N=S4(=O)CCNCC4)cc(C)c23)CC1 [Example 3.10]	88%	8 nM	–
Cc1cc(N=S(C)(C)=O)cc2ncnc(Nc3ccc(F)cc3O[C@@H]3CCNC3)c12 [Example 3.11]	78%	32 nM	–
Cc1cc(N=S2(=O)CCCC2)cc2ncnc(Nc3ccc(F)cc3O[C@@H]3CCCNC3)c12 [Example 3.12]	95%	3 nM	–
Cc1cc(N=S(C)(C)=O)cc2ncnc(Nc3ccc(F)cc3O[C@H]3CC[C@H](C#N)CC3)c12 [Example 4.4]	92%	4 nM	–
CCOc1cc(N=S(C)(C)=O)cc2ncnc(Nc3ccc(F)cc3O[C@H]3CCOC3)c12 [Example 5.1]	101%	2 nM	–
COc1cc(N=S(C)(C)=O)cc2ncnc(Nc3ccc(F)cc3O[C@H]3CC[C@H](OC)CC3)c12 [Example 5.3]	90%	6 nM	–
CCOc1cc(N=S(C)(C)=O)cc2ncnc(Nc3ccc(F)cc3O[C@H]3CC[C@H](OC)CC3)c12 [Example 5.4]	78%	15 nM	–
CCOc1cc(N=S(C)(C)=O)cc2ncnc(Nc3ccc(F)cc3O[C@@H]3CO[C@H]4[C@@H]3OC[C@H]4OC)c12 [Example 5.5]	–	2 nM	14 nM
CO[C@@H]1CO[C@H]2[C@@H]1OC[C@H]2Oc1cc(F)ccc1Nc1ncnc2cc(N=S(C)(C)=O)cc(OCCF)c12 [Example 5.6]	–	2 nM	25 nM

Compound	inhibition at 1 µM (MNK1a)	IC50 (MNK2a)	IC50 (MNK1a)
CO[C@@H]1CO[C@H]2[C@@H]1OC[C@H]2Oc1cc(F)ccc1Nc1ncnc2cc(N=S(C)(C)=O)cc(OCC(F)F)c12 [Example 5.7]	–	2 nM	43 nM
CS(C)(=O)=Nc1cc(F)c2c(Nc3ccc(F)cc3O[C@@H]3CCCN(CCO)C3)ncnc2c1 [Example 6.1]	85%	8 nM	–
Cc1cc(N=S(C)(C)=O)cc2ncnc(Nc3ccc(F)cc3O[C@@H]3CCCN(CC(F)(F)F)C3)c12 [Example 6.6]	92%	2 nM	–
Cc1cc(N=S2(=O)CCCC2)cc2ncnc(Nc3ccc(F)cc3O[C@@H]3CCCN(CCO)C3)c12 [Example 6.7]	100%	2 nM	–
Cc1cc(N=S(C)(C)=O)cc2ncnc(Nc3ccc(F)cc3O[C@@H]3CCCN(CCO)C3)c12 [Example 6.9]	95%	5 nM	–
Cc1cc(N=S(C)(C)=O)cc2ncnc(Nc3cccnc3O[C@@H]3CCCN(CCO)C3)c12 [Example 6.10]	89%	8 nM	–
CS(C)(=O)=Nc1cc(F)c2c(Nc3cccnc3O[C@@H]3CCCN(CCO)C3)ncnc2c1 [Example 6.11]	72%	31 nM	–
CS(C)(=O)=Nc1cc(F)c2c(Nc3ccc(F)cc3O[C@@H]3CCCN(Cc4ncon4)C3)ncnc2c1 [Example 6.12]	91%	12 nM	–
CS(C)(=O)=Nc1cc(F)c2c(Nc3ccc(F)cc3O[C@@H]3CCCN(CC(F)(F)F)C3)ncnc2c1 [Example 6.13]	80%	4 nM	–
CS(C)(=O)=Nc1cc(F)c2c(Nc3ccc(F)cc3O[C@@H]3CCN(CCO)C3)ncnc2c1 [Example 6.15]	82%	24 nM	–
CS(C)(=O)=Nc1cc(F)c2c(Nc3ccc(F)cc3O[C@@H]3CCN(CC(F)F)C3)ncnc2c1 [Example 6.16]	90%	7 nM	–
Cc1cc(N=S(C)(C)=O)cc2ncnc(Nc3ccc(F)cc3O[C@@H]3CCN(CCO)C3)c12 [Example 6.17]	79%	23 nM	–
Cc1cc(N=S2(=O)CCCC2)cc2ncnc(Nc3ccc(F)cc3O[C@@H]3CCN(S(C)(=O)=O)C3)c12 [Example 6.18]	98%	1 nM	–
Cc1cc(N=S(C)(C)=O)cc2ncnc(Nc3ccc(F)cc3O[C@@H]3CCCN(CCC#N)C3)c12 [Example 6.20]	93%	4 nM	–
CO[C@H]1CC[C@H](Oc2cc(F)ccc2Nc2ncnc3cc(N=S4(=O)CCN(C)CC4)cc(C)c23)CC1 [Example 7.1]	86%	5 nM	–
CO[C@H]1CC[C@H](Oc2cc(F)ccc2Nc2ncnc3cc(N=S4(=O)CCN(C(C)=O)CC4)cc(C)c23)CC1 [Example 7.2]	82%	6 nM	–
CNC(=O)N1CCS(=O)(=Nc2cc(C)c3c(Nc4ccc(F)cc4O[C@H]4CC[C@H](OC)CC4)ncnc3c2)CC1 [Example 7.4]	88%	7 nM	–
CO[C@H]1CC[C@H](Oc2cc(F)ccc2Nc2ncnc3cc(N=S4(=O)CCN(C(=O)N(C)C)CC4)cc(C)c23)CC1 [Example 7.5]	77%	7 nM	–
Cc1cc(N=S(C)(C)=O)cc2ncnc(Nc3ccc(C#N)cc3OC3CCOCC3)c12 [Example 7.6]	99%	6 nM	–
C=Cc1cc(N=S(C)(C)=O)cc2ncnc(Nc3ccc(F)cc3O[C@H]3CCOC3)c12 [Example 7.7]	97%	2 nM	–
CS(C)(=O)=Nc1cc(C#N)c2c(Nc3ccc(F)cc3O[C@H]3CCOC3)ncnc2c1 [Example 7.9]	96%	3 nM	–

— US8901138B2, “Sulfoximine substituted quinazolines for pharmaceutical compositions” (Boehringer Ingelheim International GmbH, priority 2012, dated 2014)
